Results from US20230012172A1, “COMPOSITIONS AND METHODS FOR TREATMENT OF PLATINUM-BASED CHEMOTHERAPEUTIC RESISTANT TUMORS” (The George Washington University, priority 2020, published 2023).
One block for each compound: values may come before it.

Key:
[1] = test system: SKOV3 CR cells; experiment: Cell viability assay (SRB) in SKOV3 CR cells; assay type: cell-based; conditions: for synergistic effects with cisplatin (combination index): SKOV3 CR cells
Method: Cell culture and resistance cell line establishment. IGROV1 cells, U2OS (HTB-96; ATCC), HEK293T (CRL-11268; ATCC) and SKOV3 cells (HTB-77; ATCC) were cultured at 37° C. in DMEM with 10% Fetal Bovine Serum (FBS). PEO1 (10032308; Sigma-Aldrich), PEO4 (10032309; Sigma-Aldrich), PEO14 (10032311; […] Sigma-Aldrich) were cultured at 37° C. in RPMI-1640 with 10% FBS. OV90 (CRL-11732; […] All the cells were cultured at in a humidified incubator with 5% CO2 atmosphere. Cisplatin resistant cell lines, including SKOV3 CR, IGROV1 CR and OV90 CR, were generated using an approach similar to that reported in Zhou et al., (2018) Oncogene 37, 3981-3997, the disclosure of which is incorporated herein in its entirety. Cell viability assay. Cells were seeded at 3,000 cells/well in 96-well plates were treated with drugs, followed by incubation for 48 hours, after which cell viability was detected using Sulforhodamine B (SRB) assay (64). Absorbance at 510 nm was detected using a SpectraMax Reader (Molecular Devices) and analyzed with SoftMax Analysis Software (Molecular Devices). Combinational index (CI) values were calculated using CompuSyn software.

[2] = test system: IGROV1 CR cells; experiment: Cell viability assay (SRB) in IGROV1 CR cells; assay type: cell-based, human; conditions: for toxicity (cell viability): 150 nM, IGROVI CR cells
Method: Cell culture and resistance cell line establishment. IGROV1 cells, U2OS (HTB-96; ATCC), HEK293T (CRL-11268; ATCC) and SKOV3 cells (HTB-77; ATCC) were cultured at 37° C. in DMEM with 10% Fetal Bovine Serum (FBS). PEO1 (10032308; Sigma-Aldrich), PEO4 (10032309; Sigma-Aldrich), PEO14 (10032311; Sigma-Aldrich) and PE023 cells (10032313; Sigma-Aldrich) were cultured at 37° C. in RPMI-1640 with 10% FBS. OV90 (CRL-11732; ATCC) was cultured in medium containing 1:1 MCDB 105 (Sigma) and M199 (Sigma) supplemented with 10% FBS at 37 ° C. All the cells were cultured at in a humidified incubator with 5% CO2 atmosphere. Cisplatin resistant cell lines, including SKOV3 CR, IGROV1 CR and OV90 CR, were generated using an approach similar to that reported in Zhou et al., (2018) Oncogene 37, 3981-3997, the disclosure of which is incorporated herein in its entirety.
Cell viability assay. Cells were seeded at 3,000 cells/well in 96-well plates were treated with drugs, followed by incubation for 48 hours, after which cell viability was detected using Sulforhodamine B (SRB) assay (64). Absorbance at 510 nm was detected using a SpectraMax Reader (Molecular Devices) and analyzed with SoftMax Analysis Software (Molecular Devices). Combinational index (CI) values were calculated using CompuSyn software.

[3] = target: T1, SENP1 (Homo sapiens, UniProt Q9P0U3); experiment: In vitro deSUMOylation assay with recombinant His-JAK2 and GST-SENP1; assay type: biochemical; design: made in house; host or cells: E. coli BL21 (DE3) for pET28a-JAK2; conditions: SUMOylated His-JAK2 incubated with GST-SENP1 and compound for 3 hours
T1 sequence (Q9P0U3 1-644): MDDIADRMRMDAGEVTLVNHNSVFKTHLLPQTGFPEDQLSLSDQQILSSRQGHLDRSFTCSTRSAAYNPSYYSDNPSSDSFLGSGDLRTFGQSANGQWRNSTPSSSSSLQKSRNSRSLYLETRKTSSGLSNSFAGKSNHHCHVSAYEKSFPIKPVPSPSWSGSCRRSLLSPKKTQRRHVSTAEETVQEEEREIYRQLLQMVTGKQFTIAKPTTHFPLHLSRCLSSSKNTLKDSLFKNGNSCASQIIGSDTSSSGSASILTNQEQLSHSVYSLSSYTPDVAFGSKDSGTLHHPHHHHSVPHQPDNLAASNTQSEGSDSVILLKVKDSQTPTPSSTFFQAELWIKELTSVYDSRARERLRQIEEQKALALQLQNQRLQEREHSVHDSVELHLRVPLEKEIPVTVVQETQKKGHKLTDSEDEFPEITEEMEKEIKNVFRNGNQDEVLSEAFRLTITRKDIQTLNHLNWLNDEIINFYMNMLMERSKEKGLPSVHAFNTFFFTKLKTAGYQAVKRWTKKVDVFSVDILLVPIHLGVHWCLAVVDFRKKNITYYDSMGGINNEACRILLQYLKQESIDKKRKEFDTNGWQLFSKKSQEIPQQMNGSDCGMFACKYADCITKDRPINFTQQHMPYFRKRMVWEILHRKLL
Method: To further determine whether SENP1 can directly deSUMOylate JAK2, in vitro deSUMOylation assays were performed by using purified recombinant His-JAK2 and GST-SENP1 proteins.
In vitro SUMOylation assay. The SUMOylation reactions were performed according to the manufacture's instruction (BML-UW8955-0001; ENZO). Briefly, 200 nM of purified HIS-JAK2 was suspended in reaction buffer (20 μl) containing Mg-ATP, SUMO E1, SUMO E2 and recombinant SUMOs. RanGAP1 (provided in the kit) was used as the substrate for positive control. The reaction was incubated at 37° C. for 60 minutes and terminated by using 20 μl of SDS loading buffer. […] The reactions were then subjected to Western blot to evaluate SUMOylation level.
Protein expression and purification. pET28a-JAK2 and its mutant was transformed in BL21 (DE3) E. coli cells by heat shot method at 42° C. and grown in Luria Broth (LB) at 37° C. E. coli cells were induced with 0.5 mM IPTG to induct protein expression. Cells were harvested by centrifugation at 5,000 g, 4° C. for 15 min and the pellet was resuspended in lysis buffer (20 mM Tris pH 7.9, 500 mM NaCl, 5 mM imidazole, 2 mM DTT and 1× protease inhibitor cocktail). Cells were then sonicated and centrifuged at 14,000 g, 4° C. for 15 min. 1 ml of Ni-NTA was added to the supernatant and incubated at 4° C. with end-to-end mixing for 2 hours and subjected to a column. The Ni-NTA resin was washed with 10 ml wash buffer (20 mM Tris pH 7.9, 250 mM NaCl, 15 mM Imidazole and 0.5 mM DTT) and eluted with 1 ml elution buffer (20 mM Tris pH 7.9, 250 mM NaCl and 1 M imidazole). The elute was then concentrated by using a protein concentrator (Thermo Scientific™ Pierce™) and resuspend in dialysis buffer (50 mM Tris pH 7.9, 50 mM NaCl, 2 mM DTT, and 10% glycerol). The purified protein was stored at −80° C. pGEX-4T1-SENP1 and its mutant were purified using following buffers: lysis buffer (1 mM DTT, and lx protease inhibitor cocktail, 800 mM NaCl, 5 mM EDTA, 50 mM Tris-pH8.0, 0.1% Triton x-100), wash buffer (800 mM NaCl, 5 mM EDTA, 50 mM Tris-pH8.0, 0.1% Triton x-100), elution buffer (40 mM glutathione, 800 mM NaCl, 5 mM EDTA, 50 mM Tris-pH8.0, 0.1% Triton x-100), dialysis buffer (50 mM Tris pH 7.9, 50 mM NaCl, 2 mM DTT, and 10% glycerol).

[4] = test system: JAK2; experiment: Cell-free kinase assay with JAK2 purified from treated cells, recombinant STAT3 substrate; assay type: biochemical; conditions: JAK2 purified from IGROV1 cells treated with inhibitor
Method: Phosphorylation of STAT3 at tyrosine 705 (Y705) by JAK2 is one of the most important and well established cytoplasmic functions of JAK2. To determine whether accumulation of JAK2 in nucleus by depleting SENP1 affected JAK2 cytoplasmic activity, phosphorylated STAT3 (pSTAT3 (Y705)) levels was evaluated in SENP1 depleted IGROV1 cells.
To this end, cell-free kinase assays were performed using JAK2 purified from cells treated with siSENP1 or UAMMC9.

[5] = test system: SENP1; experiment: SENP1 IHC in IGROV1 xenograft tumors of carboplatin-treated mice; assay type: in vivo, immunodeficient nude mice; conditions: carboplatin 20 mg/kg or 60 mg/kg
Method: (§1) The SENP1 protein level was increased while JAK2 SUMOylation was decreased correspondingly in IGROV1 cells treated with cisplatin in a time and dose dependent manner (FIGS. 4F and 4G). To further test the SENP1 induction by platinum drugs in vivo, SENP1 protein levels were measured in IGROV1 xenograft tumors using immunohistochemistry (IHC) in implanted immunodeficient nude mice that were treated with carboplatin at 20 mg/kg or 60 mg/kg after tumor was developed.
Immunohistochemistry. Immunohistochemical (IHC) staining and scoring were performed similar to that previously described n Zhou et al., (2018) Oncogene 37, 3981-3997, the disclosure of which is incorporated herein in its entirety. The quantification of immunohistochemical staining was scored blindly at least by two independent observers.

[6] = test system: SENP1; experiment: SENP1 protein and JAK2 SUMOylation in IGROV1 cells treated with cisplatin (Western blot); assay type: cell-based, human; conditions: time and dose dependent
Method: as §1

Structure (SMILES): CC1(C)CC[C@]2(C(=O)O)[C@H](O)C[C@]3(C)C(=CC[C@@H]4[C@@]5(C)CC[C@H](O)C(C)(C)[C@@H]5CC[C@]43C)[C@H]2C1 [echinocyslic acid]
- synergistic effects with cisplatin (combination index) [1]: synergistic effects

Structure (SMILES): C[C@@H]1CC[C@]2(C(=O)OCC(=O)NCCO)CC[C@]3(C)C(=CCC4[C@@]5(C)CC[C@H](O)C(C)(C)C5CC[C@]43C)C2[C@H]1C (stereo partly drawn) [UAMMC5]
- toxicity (cell viability) [2]: higher toxicity

- inhibited SENP1 activity in vitro [3]: inhibited
Structure (SMILES): C[C@@H]1CC[C@]2(C(=O)O)CC[C@]3(C)C(=CC[C@@H]4[C@@]5(C)C[C@@H](O)[C@H](O)C(C)(C)[C@@H]5CC[C@]43C)[C@@H]2[C@]1(C)O [tormentic acid]
- synergistic effects with cisplatin (combination index) [1]: synergistic effects

Structure (SMILES): C[C@@H]1CC[C@]2(C(=O)OCCNC(=O)OC(C)(C)C)CC[C@]3(C)C(=CCC4[C@@]5(C)CC[C@H](O)C(C)(C)C5CC[C@]43C)C2[C@H]1C (stereo partly drawn) [UAMMC3]
- toxicity (cell viability) [2]: higher toxicity

- inhibited SENP1 activity in vitro [3]: inhibited
Structure (SMILES): C[C@@H]1CC[C@]2(C(=O)O)CC[C@]3(C)C(=CC[C@@H]4[C@@]5(C)CC[C@H](O)C(C)(C)[C@@H]5CC[C@]43C)[C@@H]2[C@]1(C)O [pomolic acid]
- synergistic effects with cisplatin (combination index) [1]: synergistic effects

Structure (SMILES): CC1CCC2(C(=O)NCC(=O)N(C)CCO)CCC3(C)C(=CCC4C5(C)CCC(O)C(C)(C)C5CCC43C)C2C1C (stereo not drawn) [UAMMC9]
- decrease of the IC50 of cisplatin ([2]; 150 nM UAMMC9, IGROVI CR cells): 4.19 fold

Structure (SMILES): Cc1cnc(Nc2ccc(OCCN3CCCC3)cc2)nc1Nc1cccc(S(=O)(=O)NC(C)(C)C)c1 [TG101348]
- phosphorylation of recombinant substrate STAT3 proteins by purified JAK2 [4]: decreased phosphorylation

Structure (SMILES): N.N.O=C([O-])C1(C(=O)[O-])CCC1.[Pt+2] [Carboplatin, carboplatin]
- SENP1 expression in ovarian tumors (IHC) [5]: significant increase

Structure (SMILES): C[C@H]1[C@H](C)CC[C@]2(C(=O)O)CC[C@]3(C)C(=CC[C@@H]4[C@@]5(C)C[C@@H](O)[C@H](O)C(C)(C)[C@@H]5CC[C@]43C)[C@H]12 [corosolicin acid]
- synergistic effects with cisplatin (combination index) [1]: synergistic effects

Structure (SMILES): N.N.[Cl][Pt][Cl] [Cisplatin, cisplatin]
- JAK2 SUMOylation [6]: decreased
- SENP1 protein level [6]: increased
- IC50 ([2]; cisplatin alone or with 150 nM UAMMC, read-out: Cisplatin IC50 with 150 nM of UAMMCs on IGROV1 CR cells): 14.2 µM
- IC50 ([1]; cisplatin alone or with 150 nM UAMMC, read-out: Cisplatin IC4 with 150 nM of UAMMCs on SKOV3 CR cells, IC50): 12.4 µM
